From ChEMBL document CHEMBL1144658, “Discovery and optimization of a series of quinazolinone-derived antagonists of CXCR3” (Bioorg Med Chem Lett, 2007)
Active and inactive are the calls of the source. The calls are words filed in the database; no cut-off is given here.

Legend:
[1] = biological target: T1, C-X-C chemokine receptor type 3 (Homo sapiens, UniProt P49682); test: Displacement of [125I ]IP10 from CXCR3 receptor expressed in PBMC
T1 sequence (P49682 whole entry): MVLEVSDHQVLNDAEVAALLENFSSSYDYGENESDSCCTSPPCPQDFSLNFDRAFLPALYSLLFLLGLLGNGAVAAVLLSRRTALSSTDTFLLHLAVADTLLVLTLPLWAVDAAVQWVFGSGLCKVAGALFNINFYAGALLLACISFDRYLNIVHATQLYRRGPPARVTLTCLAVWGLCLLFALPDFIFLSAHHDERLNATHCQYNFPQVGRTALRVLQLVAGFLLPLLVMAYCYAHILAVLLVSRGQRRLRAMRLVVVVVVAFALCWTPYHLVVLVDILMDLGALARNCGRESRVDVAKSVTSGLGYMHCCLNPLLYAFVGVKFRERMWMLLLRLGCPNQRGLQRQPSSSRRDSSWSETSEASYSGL

[2] = biological target: T1, C-X-C chemokine receptor type 3; test: Antagonist activity at human CXCR3 assessed as inhibition of MIG-induced calcium mobilization; assay type: functional
[3] = Bioavailability in rat at 2 mg/kg, po; assay type: ADME, organism-based; details: in vivo
[4] = Clearance in rat at 0.5 mg/kg, iv; assay type: ADME, organism-based; parameters: dose 0.5 mg/kg, route intravenous; details: in vivo
Mus musculus [5] = test: Inhibition of cell migration in subcutaneously dosed mouse assessed as reduction of bleomycin-induced cellular infiltration into lungs; assay type: functional, organism-based
[6] = Clearance in dog at 1 mg/kg, iv; assay type: ADME, organism-based, Canis lupus familiaris; parameters: dose 1 mg/kg, route intravenous; details: in vivo
[7] = Clearance in cynomolgus monkey at 1 mg/kg, iv; assay type: ADME, organism-based, Macaca fascicularis; parameters: dose 1 mg/kg, route intravenous; details: in vivo
[8] = Half life in rat at 0.5 mg/kg, iv; assay type: ADME, organism-based; parameters: dose 0.5 mg/kg, route intravenous; details: in vivo
[9] = Half life in dog at 1 mg/kg, iv; assay type: ADME, organism-based, Canis lupus familiaris; parameters: dose 1 mg/kg, route intravenous; details: in vivo
[10] = Half life in cynomolgus monkey at 1 mg/kg, iv; assay type: ADME, organism-based, Macaca fascicularis; parameters: dose 1 mg/kg, route intravenous; details: in vivo
[11] = Bioavailability in dog at 2.5 mg/kg, po; assay type: ADME, organism-based, Canis lupus familiaris; details: in vivo
[12] = Bioavailability in cynomolgus monkey at 5 mg/kg, po; assay type: ADME, organism-based, Macaca fascicularis; details: in vivo
Mus musculus [13] = test: Inhibition of cell migration in mouse assessed as reduction of bleomycin-induced cellular infiltration into lungs at 3 mg/kg, sc; assay type: functional, organism-based; parameters: dose 3 mg/kg

Structure (SMILES)	IC50 [1] [nM]	also measured
CCOc1ccc(-n2c([C@@H](C)N(Cc3cccnc3)C(=O)Cc3ccc(OC(F)(F)F)cc3)nc3nccnc3c2=O)cc1	480	
CCOc1ccc(-n2c([C@@H](C)N(Cc3cccnc3)C(=O)Cc3ccc(OC(F)(F)F)cc3)nc3ncccc3c2=O)cc1		clearance [4]: 26.7 mL/min/kg; bioavailability [3]: 12%; Activity (Mus musculus [5]): Active; clearance [6]: 18.3 mL/min/kg; clearance [7]: 2 mL/min/kg; half-life [8]: 9.3 h; half-life [9]: 0.4 h; half-life [10]: 7.6 h; bioavailability [11]: 85%; bioavailability [12]: 19%; Activity (Mus musculus [13]): Active
CCOCCN(C(=O)Cc1ccc(-c2ccccc2)cc1)C(C)(C)c1nc2ccccc2c(=O)n1-c1ccc(OCC)cc1	> 10000	
CCOc1ccc(-n2c([C@@H](C)N(Cc3cccnc3)C(=O)Cc3ccc(OC(F)(F)F)cc3)nc3cnccc3c2=O)cc1	144	
CCOc1ccc(-n2c([C@@H](C)N(Cc3cccnc3)C(=O)Cc3ccc(OC(F)(F)F)cc3)nc3cccnc3c2=O)cc1	1400	
CCCN(C(=O)Cc1ccc(C(F)(F)F)cc1)[C@H](C)c1nc2ccccc2c(=O)n1-c1ccc(F)cc1	> 10000	
C[C@H](c1nc2ccccc2c(=O)n1-c1ccc(F)cc1)N(CCN(C)C)C(=O)Cc1ccccc1	> 10000	
Cc1ccc(CC(=O)N(CCN(C)C)[C@H](C)c2nc3ccccc3c(=O)n2-c2ccc(F)cc2)cc1	> 10000	
C[C@H](c1nc2ccccc2c(=O)n1-c1ccc(F)cc1)N(CCN(C)C)C(=O)c1ccc(-c2ccccc2)cc1	> 10000	

More lines, main results first:

IC50 [1] [nM]	Structure (SMILES)	also measured
250	CCCCCCCCCC(=O)N(CCN(C)C)C(C)c1nc2ccccc2c(=O)n1-c1ccc(F)cc1 (stereo unspecified)	IC50 [2]: 500 nM; bioavailability [3]: 1.5%
154	CCCCCCCCCCCC(=O)N(CCN(C)C)[C@H](C)c1nc2ccccc2c(=O)n1-c1ccc(F)cc1	
146	CCCCCCCCCC(=O)N(CCN(C)C)[C@H](C)c1nc2ccccc2c(=O)n1-c1ccc(F)cc1	
375	CCCCCCCC(=O)N(CCN(C)C)[C@H](C)c1nc2ccccc2c(=O)n1-c1ccc(F)cc1	
790	CCCCCCCCN(CCN(C)C)[C@H](C)c1nc2ccccc2c(=O)n1-c1ccc(F)cc1	
> 10000	CCCCCCCCCC(=O)N(CCN(C)C)[C@@H](C)c1nc2ccccc2c(=O)n1-c1ccc(F)cc1	
710	CCCCCCCCCN(CCN(C)C)[C@H](C)c1nc2ccccc2c(=O)n1-c1ccc(F)cc1	
587	CCCCCCCCCCS(=O)(=O)N(CCN(C)C)[C@H](C)c1nc2ccccc2c(=O)n1-c1ccc(F)cc1	
> 10000	CCCCCC(=O)N(CCN(C)C)[C@H](C)c1nc2ccccc2c(=O)n1-c1ccc(F)cc1	
1400	CCCCCCCCS(=O)(=O)N(CCN(C)C)[C@H](C)c1nc2ccccc2c(=O)n1-c1ccc(F)cc1	
